From the supplement of paper PMC10307832

How the values were obtained:
Assay in all cases: relative viability (nuclei count vs DMSO), 5 days (fraction); higher = more cells survive
[1] = system: NCI-H1650
How it was run: (§1)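 Lung cancer cell lines in 1536-well plates got either a single drug or a fixed anchor-drug dose together with five library-drug doses (not always all listed) in √10 steps, by pin tool, on the day after seeding. Nuclei were counted after 5 days, and relative viability is the treated-to-vehicle ratio of nuclei counts. Values are medians of duplicate plates.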

[2] = system: NCI-H1666
How it was run: as §1

[3] = system: NCI-H1793
How it was run: as §1

[4] = system: NCI-H1944
How it was run: as §1

[5] = system: NCI-H2085
How it was run: as §1

[6] = system: NCI-H2087
How it was run: as §1

[7] = system: NCI-H2126
How it was run: as §1

[8] = system: NCI-H3122
How it was run: as §1

[9] = system: NCI-H441
How it was run: as §1

[10] = system: NCI-H596
How it was run: as §1

[11] = system: NCI-H661
How it was run: as §1

[12] = system: PC-14
How it was run: as §1

SMILES: Cc1csc(=NC2CCCCC2)n1/N=C/c1ccc(O)c(O)c1O [MIM1] + CC(=O)Nc1cccc(-n2c(=O)n(C3CC3)c(=O)c3c(Nc4ccc(I)cc4F)n(C)c(=O)c(C)c32)c1 [Trametinib] (partner 0.02 µM)
- relative viability ([1]; first compound 2 µM): 0.424
- relative viability ([1]; first compound 6.325 µM): 0.182
- relative viability ([1]; first compound 20 µM): 0.138
- relative viability ([2]; first compound 0.2 µM): 0.929
- relative viability ([2]; first compound 0.6325 µM): 0.833
- relative viability ([2]; first compound 2 µM): 0.847
- relative viability ([2]; first compound 6.325 µM): 0.826
- relative viability ([2]; first compound 20 µM): 0.426
- relative viability ([3]; first compound 0.2 µM): 0.397
- relative viability ([3]; first compound 2 µM): 0.409
- relative viability ([3]; first compound 6.325 µM): 0.411
- relative viability ([3]; first compound 20 µM): 0.408
- relative viability ([4]; first compound 0.2 µM): 0.386
- relative viability ([4]; first compound 0.6325 µM): 0.462
- relative viability ([4]; first compound 2 µM): 0.307
- relative viability ([4]; first compound 6.325 µM): 0.364
- relative viability ([4]; first compound 20 µM): 0.265
- relative viability ([5]; first compound 0.2 µM): 0.619
- relative viability ([5]; first compound 0.6325 µM): 0.512
- relative viability ([5]; first compound 2 µM): 0.62
- relative viability ([5]; first compound 6.325 µM): 0.436
- relative viability ([5]; first compound 20 µM): 0.406
- relative viability ([6]; first compound 0.2 µM): 0.293
- relative viability ([6]; first compound 0.6325 µM): 0.227
- relative viability ([6]; first compound 2 µM): 0.197
- relative viability ([6]; first compound 6.325 µM): 0.175
- relative viability ([6]; first compound 20 µM): 0.202
- relative viability ([7]; first compound 0.2 µM): 0.553
- relative viability ([7]; first compound 0.6325 µM): 0.579
- relative viability ([7]; first compound 2 µM): 0.598
- relative viability ([7]; first compound 6.325 µM): 0.503
- relative viability ([7]; first compound 20 µM): 0.388
- relative viability ([8]; first compound 0.2 µM): 0.239
- relative viability ([8]; first compound 0.6325 µM): 0.244
- relative viability ([8]; first compound 2 µM): 0.261
- relative viability ([8]; first compound 6.325 µM): 0.302
- relative viability ([8]; first compound 20 µM): 0.125
- relative viability ([9]; first compound 0.2 µM): 0.558
- relative viability ([9]; first compound 0.6325 µM): 0.409
- relative viability ([9]; first compound 2 µM): 0.484
- relative viability ([9]; first compound 6.325 µM): 0.302
- relative viability ([9]; first compound 20 µM): 0.211
- relative viability ([10]; first compound 0.2 µM): 0.702
- relative viability ([10]; first compound 0.6325 µM): 0.95
- relative viability ([10]; first compound 2 µM): 0.745
- relative viability ([10]; first compound 6.325 µM): 0.667
- relative viability ([10]; first compound 20 µM): 0.56
- relative viability ([11]; first compound 0.2 µM): 0.607
- relative viability ([11]; first compound 0.6325 µM): 0.587
- relative viability ([11]; first compound 2 µM): 0.554
- relative viability ([11]; first compound 6.325 µM): 0.406
- relative viability ([11]; first compound 20 µM): 0.348
- relative viability ([12]; first compound 0.2 µM): 0.663
- relative viability ([12]; first compound 0.6325 µM): 0.882
- relative viability ([12]; first compound 2 µM): 0.479
- relative viability ([12]; first compound 6.325 µM): 0.621
- relative viability ([12]; first compound 20 µM): 0.17
